Reference: ChEMBL document CHEMBL1201862, “PubChem BioAssay data set” (2004)
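1) Cells in 96-well plates. 2) Compound, 48 h, 5 concentrations. 3) Linear interpolation between surrounding doses. 4) Unreached endpoint = highest concentration. GI50 = concentration required for 50% inhibition of growth.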 Active and inactive are the calls of the source. Cut-off read from the data, not from the text of the source: active = GI50 up to about 1.1 µM and inactive = higher.

Key:
Assay in all cases: inhibition of tumour cell growth, NCI panel, 48 h
MDA-MB-231 = system: MDA-MB-231
UACC-257 = system: UACC-257
SF-268 = system: SF-268
SK-MEL-2 = system: SK-MEL-2
HCC 2998 = system: HCC 2998
CCRF-CEM = system: CCRF-CEM
MDA-MB-435 = system: MDA-MB-435
K562 = system: K562
HL-60 = system: HL-60
MCF7 = system: MCF7
PC-3 = system: PC-3
UACC-62 = system: UACC-62
NCI/ADR-RES = system: NCI/ADR-RES
BT-549 = system: BT-549
EKVX = system: EKVX
NCI-H226 = system: NCI-H226
OVCAR-4 = system: OVCAR-4
SNB-75 = system: SNB-75
MDA-N = system: MDA-N
A498 = system: A498

| SMILES | GI50 (MDA-MB-231) | GI50 (UACC-257) | GI50 (SF-268) | GI50 (SK-MEL-2) | GI50 (HCC 2998) | GI50 (CCRF-CEM) | GI50 (MDA-MB-435) | GI50 (K562) | GI50 (HL-60) | GI50 (MCF7) | GI50 (PC-3) | GI50 (UACC-62) | GI50 (NCI/ADR-RES) | GI50 (BT-549) | GI50 (EKVX) | GI50 (NCI-H226) | GI50 (OVCAR-4) | GI50 (SNB-75) | GI50 (MDA-N) | GI50 (A498) |
| --- | --- | --- | --- | --- | --- | --- | --- | --- | --- | --- | --- | --- | --- | --- | --- | --- | --- | --- | --- | --- |
| N#CSC1CCCCNC1=O (stereo not drawn) | 14.9 µM (inactive) | 17.1 µM (inactive) | 11.8 µM (inactive) | 11.4 µM (inactive) | 16.4 µM (inactive) | 5.55 µM (inactive) | 13.9 µM (inactive) | 18.2 µM (inactive) | 23.9 µM (inactive) | 4.07 µM (inactive) | 13.6 µM (inactive) | 12.3 µM (inactive) | 12.8 µM (inactive) | 5.93 µM (inactive) | 17.9 µM (inactive) | 12 µM (inactive) | – | – | – | – |
| CCSc1[nH]c(NC(=S)NC(=O)c2ccccc2Cl)c(C(N)=O)c1C(N)=O | > 10 µM (inactive) | > 10 µM (inactive) | > 10 µM (inactive) | – | > 10 µM (inactive) | > 10 µM (inactive) | > 10 µM (inactive) | > 10 µM (inactive) | > 10 µM (inactive) | > 10 µM (inactive) | > 10 µM (inactive) | > 10 µM (inactive) | – | – | > 10 µM (inactive) | – | > 10 µM (inactive) | > 10 µM (inactive) | > 10 µM (inactive) | – |
| COc1c(-c2nc3ccc(N4CCN(C)CC4)nc3[nH]2)cc(OC)c2[nH]c(COC(C)=O)nc12 | 17.9 µM (inactive) | 24.8 µM (inactive) | 61.8 µM (inactive) | 19.5 µM (inactive) | 15.2 µM (inactive) | – | 26.5 µM (inactive) | 1.52 µM (inactive) | – | 17.2 µM (inactive) | – | 47.9 µM (inactive) | > 100 µM (inactive) | 56.9 µM (inactive) | 54.2 µM (inactive) | – | 32.4 µM (inactive) | 24.4 µM (inactive) | 24.7 µM (inactive) | 93.1 µM (inactive) |
| CSc1ncnc2c1ncn2CCC#N | > 100 µM (inactive) | > 100 µM (inactive) | > 100 µM (inactive) | – | – | > 100 µM (inactive) | > 100 µM (inactive) | > 100 µM (inactive) | > 100 µM (inactive) | > 100 µM (inactive) | > 100 µM (inactive) | – | > 100 µM (inactive) | – | > 100 µM (inactive) | > 100 µM (inactive) | > 100 µM (inactive) | > 100 µM (inactive) | > 100 µM (inactive) | > 100 µM (inactive) |
| OC1CCCCCCCCCCC1SCCCCl (stereo not drawn) | > 100 µM (inactive) | > 100 µM (inactive) | > 100 µM (inactive) | > 100 µM (inactive) | > 100 µM (inactive) | – | > 100 µM (inactive) | > 100 µM (inactive) | > 100 µM (inactive) | > 100 µM (inactive) | > 100 µM (inactive) | > 100 µM (inactive) | > 100 µM (inactive) | – | > 100 µM (inactive) | > 100 µM (inactive) | > 100 µM (inactive) | – | > 100 µM (inactive) | > 100 µM (inactive) |
| O=C(Nc1ccccc1)OC1OC(COC(=O)c2ccccc2)C(OC(=O)c2ccccc2)C1OS(=O)(=O)c1ccc([N+](=O)[O-])cc1 (stereo not drawn) | – | > 100 µM (inactive) | > 100 µM (inactive) | > 100 µM (inactive) | > 100 µM (inactive) | > 100 µM (inactive) | > 100 µM (inactive) | > 100 µM (inactive) | 86.7 µM (inactive) | > 100 µM (inactive) | > 100 µM (inactive) | > 100 µM (inactive) | > 100 µM (inactive) | > 100 µM (inactive) | 63.8 µM (inactive) | > 100 µM (inactive) | > 100 µM (inactive) | – | > 100 µM (inactive) | > 100 µM (inactive) |
| CC(=O)O[C@H]1C[C@@H](OC(C)=O)[C@@](C)(O)[C@@H]2[C@@H](OC(C)=O)[C@@]3(O)[C@H](/C=C(/CCl)[C@H]4O[C@H]4[C@@H](OC(C)=O)[C@@]12C)OC(=O)[C@@H]3C | > 25 µM (inactive) | > 25 µM (inactive) | > 25 µM (inactive) | > 25 µM (inactive) | > 25 µM (inactive) | 18.5 µM (inactive) | 19.7 µM (inactive) | > 25 µM (inactive) | – | – | > 25 µM (inactive) | > 25 µM (inactive) | > 25 µM (inactive) | > 25 µM (inactive) | > 25 µM (inactive) | > 25 µM (inactive) | > 25 µM (inactive) | > 25 µM (inactive) | 12 µM (inactive) | > 25 µM (inactive) |
| C(=C\c1ccco1)/c1cccc(/C=C/c2ccco2)n1 | – | > 50 µM (inactive) | > 50 µM (inactive) | – | > 50 µM (inactive) | > 50 µM (inactive) | > 50 µM (inactive) | > 50 µM (inactive) | > 50 µM (inactive) | 0.283 µM (active) | – | > 50 µM (inactive) | > 50 µM (inactive) | > 50 µM (inactive) | > 50 µM (inactive) | > 50 µM (inactive) | > 50 µM (inactive) | 13.2 µM (inactive) | > 50 µM (inactive) | > 50 µM (inactive) |
